Data published in US5314896A, “1,3-substituted cycloalkenes and cycloalkanes as central nervous system agents” (priority 1992, dated 1994).
pIC50: −log10 of the molar value. Where two headings read alike, the source gives them in different places.

Experiments:
dopamine receptors = experiment: Inhibition of [^3 H] spiroperidol binding
Method: (§1) The compounds of Formula I are valuable dopaminergic agents. […] Thus, the compounds of Formula I were tested for their ability to inhibit locomotor activity in mice and rats, a measure of antipsychotic activity, according to the assay described by J. R. McLean, et al, Pharmacology, Biochemistry and Behavior, Vol. 8, pages 97-99 (1978); for their ability to bind to dopamine receptors as measured by their inhibition of [^3 H]spiroperidol binding in a receptor assay described by D. Grigoriadis and P. Seeman, Journal of Neurochemistry, Vol. 44, pages 1925-1935 (1985); and for their ability to effect dopamine synthesis in rats according to the protocol described by J. R. Walters and R. H. Roth, Naunyn-Schmiedebero's Archives of Pharmacology, Vol. 296, pages 5-14 (1976). The above test methods are incorporated herein by reference. The data in the table show the dopaminergic activity of representative compounds of Formula I.

[1] = tested on: Locomotor Activity in Mice; experiment: Inhibition of locomotor activity in mice; format: in vivo; conditions: for ED50: Mus musculus
Method: as §1

Brain Dopamine Synthesis = experiment: % effects on brain dopamine synthesis in rats; format: in vivo; conditions: Rattus norvegicus
Method: as §1

[2] = ip, read-out: Inhibition of Locomotor Activity in Mice ED50, mice, IP (Table 1)
[3] = ip, read-out: % Effects on Brain Dopamine Synthesis in Rats, rats, 10 mg/kg, IP (Table 1)
[4] = rats, 10 mg/kg, IP (Table 1), read-out: % Effects on Brain Dopamine Synthesis in Rats
[5] = mice, IP (Table 1), read-out: Inhibition of Locomotor Activity in Mice ED50
[6] = ip, read-out: Inhibition of Locomotor Activity in Mice ED50, mice, IP (Table 2)

| Compound | pIC50 (dopamine receptors; Table 1) | ED50 [1, 2] [mg/kg] | other results |
| --- | --- | --- | --- |
| C1=C(c2ccccc2)CCN(C[C@@H]2CCC[C@@H](c3ccccc3)C2)C1.Cl [Example 20a, (1R-trans) 1,2,3,6-tetrahydro-4-phenyl-1-[(3-phenylcyclohexyl)methyl]pyridine monohydrochloride] | 6.06 | 0.5 |  |
| C1=C(c2ccccc2)CCN(CC2CCC=C(c3c[nH]c4ccccc34)C2)C1 (racemic) [Example 26, (±)-3-[5-[(3,6-dihydro-4-phenyl-1(2H)-pyridinyl)methyl]-1-cyclohexen-1-yl]-1H-indole] | 6.54 | 2 | change in vivo at 10 mg/kg (Brain Dopamine Synthesis; [3]): -23% |
| C1=C(c2ccccc2)CCN(C[C@@H]2CCC=C(c3cncnc3)C2)C1.Cl [Example 14, (R)-5-[5-[(3,6-dihydro-4-phenyl-1(2H)-pyridinyl)methyl]-1-cyclohexen-1-yl]pyrimidine monohydrochloride] | 6.36 | 0.4 |  |
| CN(C)c1ccc(C2=C[C@H](CN3CC=C(c4ccccc4)CC3)CCC2)cc1 [Example 16a, (R)-4-[3-[(3,6-dihydro-4-phenyl-1(2H)-pyridinyl)methyl]-1-cyclohexen-1-yl]-N,N-dimethylbenzeneamine] | 6.18 | 0.7 |  |
| C1=C(c2ccccc2)CC(CN2CCN(c3ccccn3)CC2)C1 (racemic) [Example 25, (±)-1-[(3-phenyl-3-cyclopenten-1-yl)methyl]-4-(2-pyridinyl)piperazine] | 6.72 |  | change in vivo at 10 mg/kg (Brain Dopamine Synthesis; [4]): -45%; ED50 [1, 5]: 2.7 mg/kg |
| Fc1ccc(C2=CCCC(CN3CC=C(c4ccccc4)CC3)C2)cc1 (racemic) [Example 3, (±)-1-[[3-(4-Fluorophenyl)-3-cyclohexen-1-yl]methyl]-1,2,3,6-tetrahydro-4-phenylpyridine] | 7.05 | 4.2 |  |
| C1=C(c2ccccc2)CCN(C[C@@H]2CCC=C(c3cnc4ccccc4c3)C2)C1 [Example 17, (R)-3-[5-[(3,6-dihydro-4-phenyl-1(2H)-pyridinyl)methyl]-1-cyclohexen-1-yl]quinoline] | 7.12 | 0.23 | change in vivo at 10 mg/kg (Brain Dopamine Synthesis; [3]): -21% |
| (R)-1,2,3,6-tetrahydro-1-[[3-(2-methylphenyl)-2-cyclohexen-1-yl]methyl]-4-phenylpyridine monohydrochloride compound with (R)-1,2,3,6-tetrahydro-1-[[3-(2-methylphenyl)-3-cyclohexen-1-yl]methyl]-4-phenylpyridine [Example 13] |  |  | Inhibition of Locomotor Activity in Mice ED50 ([1]; mice, IP (Table 1)): 2.3 mg/kg |
| C1=C(c2ccccc2)CCN(C[C@@H]2CCC=C(c3cccnc3)C2)C1.Cl [Example 12, (R)-3-[5-[(3,6-dihydro-4-phenyl-1(2H)-pyridinyl)methyl]-1-cyclohexen-1-yl]pyridine monohydrochloride] | 7.09 | 0.01 | change in vivo at 10 mg/kg (Brain Dopamine Synthesis; [3]): -85% |
| Fc1ccc(C2=CCCC(CN3CCN(c4ccccn4)CC3)C2)cc1 (racemic) [Example 5, (±)-1-[[3-(4-Fluorophenyl)-3-cyclohexen-1-yl]methyl]-4-(2-pyridinyl)piperazine] | 6.84 | 1.2 | change in vivo at 10 mg/kg (Brain Dopamine Synthesis; [4]): -58% |
| C1=C(c2ccccc2)CC(CN2CCN(c3ccccc3)CC2)CC1.Cl.Cl (racemic) [Example 22, (±)-1-phenyl-4-[(3-phenyl-3-cyclohexen-1-yl)methyl]-piperazine dihydrochloride] | 6.37 |  | ED50 [1, 5]: 2.1 mg/kg |
| C1=C(c2ccccc2)CCN(CC2CCC=C(c3cccs3)C2)C1 (racemic) [Example 2, (±)-1,2,3,6-Tetrahydro-4-phenyl-1-[[3-(2-thienyl)-3-cyclohexen-1-yl]methyl]pyridine] | 6.69 | 1.8 | change in vivo at 10 mg/kg (Brain Dopamine Synthesis; [3]): -9% |
| C1=C(c2ccccc2)CCC(CCN2CC=C(c3ccccc3)CC2)C1 (racemic) [Compound C, (±)-1,2,3,6-tetrahydro-4-phenyl-1-[2-(4-phenyl-3-cyclohexen-1-yl)ethyl]pyridine, reference compound] |  |  | pIC50 (dopamine receptors; Table 2): 5.10; ED50 [1, 6]: 5.8 mg/kg |
| C1=C(c2ccccc2)CCN(C2CCC=C(c3ccccc3)C2)C1 (racemic) [D, (±)-1,2,3,6-tetrahydro-4-phenyl-1-(3-phenyl)-3-cyclohexen-1-yl)pyridine, reference compound] |  |  | pIC50 (dopamine receptors; Table 2): 5.04; ED50 [1, 6]: 30 mg/kg |
| Fc1ccc(C2=CC(CN3CCN(c4ccccn4)CC3)CCC2)cc1 (racemic) [Example 5a, (±)-1-[[3-(4-Fluorophenyl)-2-cyclohexen-1-yl]methyl]-4-(2-pyridinyl)piperazine] | 6.55 |  | change in vivo at 10 mg/kg (Brain Dopamine Synthesis; [4]): -48%; ED50 [1, 5]: 2.2 mg/kg |
| COc1ccc(C2=CCC[C@@H](CN3CC=C(c4ccccc4)CC3)C2)cc1.Cl [Example 11, (R)-1,2,3,6-tetrahydro-1-[[3-(4-methoxyphenyl)-3-cyclohexen-1-yl]methyl]-4-phenylpyridine monohydrochloride] | 7.00 | 0.37 | change in vivo at 10 mg/kg (Brain Dopamine Synthesis; [3]): -47% |
| C1=C(c2ccccc2)CC(CN2CCN(c3ncccn3)CC2)CC1 (racemic) [Example 23, (±)-2-[4-[[3-phenyl-3-cyclohexen-1-yl)methyl]-1-piperazinyl]pyrimidine] | 6.45 |  | ED50 [1, 5]: 8.5 mg/kg |
| C1=C(c2ccccc2)C[C@H](CN2CCN(c3ccccn3)CC2)CC1 [Example 21, (R)-1-[(3-Phenyl-3-cyclohexen-1-yl)methyl]-4-(2-pyridinyl)piperazine] | 7.12 |  | change in vivo at 10 mg/kg (Brain Dopamine Synthesis; [4]): -27%; ED50 [1, 5]: 9.9 mg/kg |
| C1=C(c2ccccc2)CCC(CN2CC=C(c3ccccc3)CC2)C1 (racemic) [B, (±)-1,2,3,6-tetrahydro-4-phenyl-1-[(4-phenyl-3-cyclohexen-1-yl)methyl]pyridine, reference compound] |  |  | pIC50 (dopamine receptors; Table 2): 6.00; ED50 [1, 6]: 13.2 mg/kg |
| C1=C(c2ccccc2)CCN(CC2C=C(c3cccs3)CCC2)C1 (racemic) [Example 2a, (±)-1,2,3,6-Tetrahydro-4-phenyl-1-[[3-(2-thienyl)-2-cyclohexen-1-yl]methyl]pyridine] | 6.40 | 2.3 |  |
| Clc1ccc(C2=C[C@H](CN3CC=C(c4ccccc4)CC3)CCC2)cc1 [Example 7a, (R)-1-[[3-(4-chlorophenyl)-2-cyclohexen-1-yl]methyl]-1,2,3,6-tetrahydro-4-phenylpyridine] | 5.63 | 7.5 |  |
| C1=C(c2ccccc2)CCN(CCC2CCC=C(c3ccccc3)C2)C1 (racemic) [Compound E, (±)-1,2,3,6-tetrahydro-4-phenyl-1-[2-(3-phenyl-3-cyclohexen-1-yl)ethyl]pyridine, reference compound] |  |  | ED50 [1, 6]: 10.9 mg/kg |
| C1=C(c2ccccc2)CCC(N2CC=C(c3ccccc3)CC2)C1 (racemic) [A, (±)-1,2,3,6-tetrahydro-4-phenyl-1-(4-phenyl-3-cyclohexen-1-yl)pyridine, reference compound] |  |  | pIC50 (dopamine receptors; Table 2): 5.97; ED50 [1, 6]: 12.9 mg/kg |
| C1=C(c2ccccc2)CCC(CN2CCN(c3ccccn3)CC2)C1 (racemic) [Compound G, (±)-1-[(4-phenyl-3-cyclohexen-1-yl)methyl]-4-(2-pyridinyl)piperazine, reference compound] |  |  | pIC50 (dopamine receptors; Table 2): 4.95; ED50 ([1]; mice, IP (Table 2), read-out: Inhibition of Locomotor Activity in Mice ED50): 25.9 mg/kg |
| C1=C(c2ccccc2)CC(CN2CC=C(c3cccs3)CC2)CC1.Cl (racemic) [Example 24, (±)-1,2,3,6-tetrahydro-1-[(3-phenyl-3-cyclohexen-1-yl)methyl]-4-(2-thienyl)pyridine monohydrochloride] | 6.77 | 1.5 |  |
| C1=C(c2cncnc2)CCC[C@H]1CN1CC=C(c2ccccc2)CC1.Cl.Cl [Example 14a, (R)-5-[3-[(3,6-dihydro-4-phenyl-1(2H)-pyridinyl)methyl]-1-cyclohexen-1-yl]pyrimidine dihydrochloride] |  | 0.07 |  |
| C1=C(c2ccsc2)CCC[C@H]1CN1CC=C(c2ccccc2)CC1 [Example 15, (R)-1,2,3,6-tetrahydro-4-phenyl-1-[[3-(3-thienyl)-2-cyclohexen-1-yl]methyl]pyridine] | 6.60 | 1.3 |  |
| Cl.Clc1ccc(C2=CCC[C@@H](CN3CC=C(c4ccccc4)CC3)C2)cc1 [Example 7, (R)-1-[[3-(4-chlorophenyl)-3-cyclohexen-1-yl]methyl]-1,2,3,6-tetrahydro-4-phenylpyridine monohydrochloride] |  | 4.4 | change in vivo at 10 mg/kg (Brain Dopamine Synthesis; [3]): -18% |
| C1=C(c2cnc3ccccc3c2)CCC[C@H]1CN1CC=C(c2ccccc2)CC1 [Example 17a, (R)-3-[3-[(3,6-dihydro-4-phenyl-1(2H)-pyridinyl)methyl]-1-cyclohexen-1-yl]quinoline] | 5.96 | 1.7 |  |
| C1=C(c2ccccc2)CCN(C[C@@H]2CCC=C(c3ccc4c(c3)OCO4)C2)C1.Cl [Example 18, (R)-1-[[3-(1,3-benzodioxol-5-yl)-3-cyclohexen-1-yl]methyl]-1,2,3,6-tetrahydro-4-phenylpyridine monohydrochloride] | 6.36 | 0.8 |  |
